Measured values taken from US5576335A, “Urea derivatives and their use as ACAT inhibitors” (Nisshin Flour Milling Co., Ltd., priority 1994, dated 1996).

How the values were obtained:
Human LDL = assay: Antioxidative activity (inhibition of MDA formation in cupric sulfate-induced peroxidation of LDL); assay type: biochemical; settings: compound 10^-5 M, cupric sulfate 5×10^-6 M, 5 hrs, percent inhibition of MDA formation vs control
Experimental: 2. Antioxidative activity
Human LDL was incubated in the presence of cupric sulfate (5×10^-6 M) and in the presence or absence of a compound (10^-5 M) for 5 hrs. After the incubation, the peroxidation of low-density lipoproteins (LDL) is evaluated by the formation of malondialdehyde (MDA), which is a sort of lipid peroxides according to the method of Simon J. T. Mao et al. (J. Med. Chem., Vol. 34, pages 298-302, 1991). Activity of the compound is shown by percent inhibition of the MDA formation as compared with control.

ACAT = ACAT inhibitory activity (labelled cholesteryl ester formation from [1-14C]oleoyl-CoA, liver microsome fractions); assay type: biochemical; settings: compound at 10^-7 M; rabbit liver microsomes; percent inhibition of formation of labelled cholesteryl esters
Experimental: 1. ACAT inhibitory activity
The enzyme preparation, ACAT was prepared from liver microsome fractions of male rabbits according to the method of E. E. Largis et al. (Journal of Lipid Research, Vol. 30, pages 681-690, 1989). The activity was calculated by assaying the amount of the labelled cholesteryl esters formed from [1-^14 C]oleoyl-CoA and endogenous cholesterol according to the method of Kazuichi NATORI et al. (Japan J. Pharmacol., Vol. 42, pages 517-523, 1986).
The result is shown in Table 1, in which percent inhibition of the formation of the labelled cholesteryl esters with a compound added at 10^-7 M is indicated as index for the ACAT inhibitory activity.

Structure (SMILES)	Antioxidant Activity (%) (Human LDL)	ACAT Inhibition (%) (ACAT)
CCCCCCCNC(=O)Nc1ccccc1NC(=O)c1cc(C(C)(C)C)c(O)c(C(C)(C)C)c1 [Example 6, N-[2-(3-heptylureido)phenyl]-3,5-di-t-butyl-4-hydroxybenzamide]	82	79
CC(C)(C)c1cc(C(=O)Nc2ccccc2NC(=O)NCC(c2ccccc2)c2ccccc2)cc(C(C)(C)C)c1O [Example 7, N-[2-(3-(2,2-diphenylethyl)ureido]phenyl]-3,5-di-t-butyl-4-hydroxybenzamide]	75	86
CC(C)(C)c1cc(C(=O)Nc2ccccc2NC(=O)N(Cc2ccccc2)Cc2ccccc2)cc(C(C)(C)C)c1O [Example 8, N-[2-(3,3-dibenzylureido)phenyl]-3,5-di-t-butyl-4-hydroxybenzamide]	83	85
CC(C)(C)c1cc(C(=O)Nc2ccccc2NC(=O)NC23CC4CC(CC(C4)C2)C3)cc(C(C)(C)C)c1O [Example 11, N-[2-(3-adamantyl)ureido]phenyl-3,5-di-t-butyl-4-hydroxybenzamide]	–	73
CC(C)(C)c1cc(C(=O)Nc2ccccc2NC(=O)N(Cc2ccccc2)Cc2ccccn2)cc(C(C)(C)C)c1O [Example 12, N-[2-[3-benzyl-3-(2-pyridylmethyl)ureido]phenyl]-3,5-di-t-butyl-4-hydroxybenzamide]	–	79
CCCCCCCN(C)C(=O)Nc1ccccc1NC(=O)c1cc(C(C)(C)C)c(O)c(C(C)(C)C)c1 [Example 13, N-[2-(3-heptyl-3-methyl)ureido]phenyl-3,5-di-t-butyl-4-hydroxybenzamide]	–	88
CCCCCCCNC(=O)Nc1ccccc1NCc1cc(C(C)(C)C)c(O)c(C(C)(C)C)c1 [Example 14]	96	81
COc1ccc(NC(=O)N(Cc2ccccc2)Cc2ccccc2)c(NC(=O)c2cc(C(C)(C)C)c(O)c(C(C)(C)C)c2)c1 [Example 20, N-[2-(3,3-dibenzylureido)-5-methoxyphenyl]-3,5-di-t-butyl-4-hydroxybenzamide]	–	99
CCCCCCCN(C)C(=O)Nc1ccc(OC)cc1NC(=O)c1cc(C(C)(C)C)c(O)c(C(C)(C)C)c1 [Example 21, N-[2-(3-heptyl-3-methylureido)-5-methoxyphenyl]-3,5-di-t-butyl-4-hydroxybenzamide]	–	93
CCCCCCCNC(=O)Nc1ccc(F)cc1NC(=O)c1cc(C(C)(C)C)c(O)c(C(C)(C)C)c1 [Example 30, N-[5-fluoro-2-(3-heptylureido)phenyl]-3,5-di-t-butyl-4-hydroxybenzamide]	79	78
CCCCCCCN(C)C(=O)Nc1ccc(F)cc1NC(=O)c1cc(C(C)(C)C)c(O)c(C(C)(C)C)c1 [Example 32, N-[5-fluoro-2-(3-heptyl-3-methylureido)phenyl]-3,5-di-t-butyl-4-hydroxybenzamide]	–	95
CCCCCCCN(C)C(=O)Nc1cc(Cl)c(Cl)cc1NC(=O)c1cc(C(C)(C)C)c(O)c(C(C)(C)C)c1 [Example 35, N-[4,5-dichloro-2-(3-heptyl-3-methylureido)phenyl]-3,5-di-t-butyl-4-hydroxybenzamide]	–	71
CCCCCCCNC(=O)Nc1cc(OC)ccc1NC(=O)c1cc(C(C)(C)C)c(O)c(C(C)(C)C)c1 [Example 36, N-[2-(3-heptylureido)-4-methoxyphenyl]-3,5-di-t-butyl-4-hydroxybenzamide]	92	77
